SMILES strings stand for the structures. Counter-ions that a name gives are not always drawn.

The values that follow come from paper PMC6360136 (Investigational new drugs, 2018).

One assay concerns EC68 cells. The assay can be described thus: Cell viability assay. Conditions: Homo sapiens, Pancreatic cancer cell, 48 h. In kind it is cell-based, human.
For the next assay, the system named is PANC-1 cells. Put plainly: Cell viability assay. Conditions: Homo sapiens, PANC-1, 48 h. In kind it is cell-based, human.
A further assay concerns EC46 cells. The assay can be described thus: Cell viability assay. In kind it is cell-based, human. Conditions: Homo sapiens, Pancreatic cancer cell, 48 h.
The next assay concerns colon cancer xenograft. The note with it: colon cancer xenograft mice model, 0.25 mg/kg daily dosing ref 18, 19; cited from earlier work.

For orientation: IC50 means the midpoint of a concentration-inhibition curve. High values mean a need for much substance, low ones inhibition by little substance. As for `C#Cc1cccc(Nc2ncnc3cc(OCCOC)c(OCCOC)cc23)c1` [erlotinib hydrochloride, reference compound], the IC50 in the assay with EC68 cells amounted to 8.96 µM; in the assay with PANC-1 cells it was 13.1 µM; in the assay with EC46 cells it was 2.41 µM.
As to `CC[C@H](C)[C@H]1C(=O)N2CCC[C@@H]2C(=O)O[C@H](C(C)(C)C)C[C@@H](C)C[C@H](O)C(C)(C)C2=N[C@@H](CCC(=O)N[C@@H](Cc3ccc(OC)cc3)C(=O)N(C)[C@@H](C)C(=O)N1C)CS2` [Apratoxin S8, apratoxin S8], in the assay on colon cancer xenograft, the tumor growth entry is “significantly retarded tumor growth”.
